Reference: article PMC4891047, “A 20(S)-protopanoxadiol derivative overcomes multi-drug resistance by antagonizing ATP-binding cassette subfamily B member 1 transporter function” (Oncotarget, 2016)
Read-outs that look alike come from different tables or passages of the source.

Assays:
ABCB1 [1] = target: T1, ABCB1 (Homo sapiens, UniProt P08183); test: biochemical
T1 construct: membrane vesicles (Pgp-Glo assay system)

ABCB1 [2] = target: T1, ABCB1; test: biochemical; remark: listed apart in the source

T1 sequence (P08183 whole entry): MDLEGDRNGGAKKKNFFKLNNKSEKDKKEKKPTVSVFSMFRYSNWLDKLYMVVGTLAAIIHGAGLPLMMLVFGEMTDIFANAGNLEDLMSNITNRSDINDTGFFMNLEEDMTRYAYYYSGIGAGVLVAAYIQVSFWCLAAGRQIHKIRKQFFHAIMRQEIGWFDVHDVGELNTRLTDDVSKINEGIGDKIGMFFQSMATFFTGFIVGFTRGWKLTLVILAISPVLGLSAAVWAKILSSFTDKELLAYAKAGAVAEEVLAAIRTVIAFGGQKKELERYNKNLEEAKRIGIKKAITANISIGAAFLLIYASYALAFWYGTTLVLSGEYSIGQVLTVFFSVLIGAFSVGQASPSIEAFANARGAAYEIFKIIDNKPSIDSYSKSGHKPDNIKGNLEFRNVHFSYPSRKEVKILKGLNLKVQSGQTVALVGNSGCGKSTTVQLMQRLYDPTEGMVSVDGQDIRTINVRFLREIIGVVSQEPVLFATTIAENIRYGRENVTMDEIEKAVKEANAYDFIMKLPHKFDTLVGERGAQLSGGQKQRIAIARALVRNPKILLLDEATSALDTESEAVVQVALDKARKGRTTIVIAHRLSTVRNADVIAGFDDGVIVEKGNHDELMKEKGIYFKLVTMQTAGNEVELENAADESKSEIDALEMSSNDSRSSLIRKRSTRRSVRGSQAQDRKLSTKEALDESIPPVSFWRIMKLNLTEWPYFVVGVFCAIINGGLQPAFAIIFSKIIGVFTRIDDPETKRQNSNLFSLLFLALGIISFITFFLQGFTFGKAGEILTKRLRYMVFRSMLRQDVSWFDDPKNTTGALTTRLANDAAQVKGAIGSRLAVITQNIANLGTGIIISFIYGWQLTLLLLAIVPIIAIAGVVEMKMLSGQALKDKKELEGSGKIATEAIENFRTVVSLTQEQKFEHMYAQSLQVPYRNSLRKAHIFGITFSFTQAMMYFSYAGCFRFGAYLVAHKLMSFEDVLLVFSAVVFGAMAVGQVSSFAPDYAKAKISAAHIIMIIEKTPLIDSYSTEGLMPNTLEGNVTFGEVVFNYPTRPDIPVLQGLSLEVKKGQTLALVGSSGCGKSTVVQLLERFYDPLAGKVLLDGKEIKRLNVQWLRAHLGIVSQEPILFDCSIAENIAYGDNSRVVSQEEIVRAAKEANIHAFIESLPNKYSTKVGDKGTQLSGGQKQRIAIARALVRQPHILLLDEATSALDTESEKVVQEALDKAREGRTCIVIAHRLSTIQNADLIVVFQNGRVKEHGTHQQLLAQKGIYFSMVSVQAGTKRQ

Row | Structure (SMILES) | EC50 (ABCB1 [1]) [µM] | EC50 (ABCB1 [2]) [µM]
1 | COc1ccc(CNCCC[C@](C)(O)[C@H]2CC[C@]3(C)[C@@H]2[C@H](O)C[C@@H]2[C@@]4(C)CC[C@H](O)C(C)(C)[C@@H]4CC[C@]23C)cc1 [PPD11] | 2.38 | –
2 | CC1(C)[C@@H](O)CC[C@]2(C)[C@H]3C[C@@H](O)[C@@H]4[C@@H]([C@@](C)(O)CCCNCc5ccccc5)CC[C@@]4(C)[C@]3(C)CC[C@@H]12 [PPD12] | – | 1.52
3 | CC(C)=CCC[C@](C)(O)[C@H]1CC[C@]2(C)[C@@H]1[C@H](O)C[C@@H]1[C@@]3(C)CC[C@H](O)C(C)(C)[C@@H]3CC[C@]12C [PPD, 20(S)-protopanoxadiol] | 3.13 | –
